Laboratory results as given in the NIST ThermoML archive (doi:10.1021/je050147b).
Values joined by “and” are separate entries in the source; they are usually repeats but may differ in a detail not shown here. Equal values may be shown once.

Settings: Liquid; for mass density: 101.33 kPa

CCCCn1cc[n+](C)c1.F[P-](F)(F)(F)(F)F [1-butyl-3-methylimidazolium hexafluorophosphate]
Settings	mass density
273.1 K	1388.85 kg/m3
278.1 K	1384.55 kg/m3
283.1 K	1380.27 kg/m3
288.15 K	1375.99 kg/m3
293.15 K	1371.72 kg/m3
298.15 K	1367.45 kg/m3
303.15 K	1363.19 kg/m3
313.15 K	1354.95 kg/m3 and 1354.96 kg/m3
323.15 K	1346.75 kg/m3
333.15 K	1338.58 kg/m3
343.15 K	1330.45 kg/m3
353.15 K	1322.38 kg/m3
363.15 K	1314.36 kg/m3

Settings	viscosity
273.15 K, 100 kPa	1717 mPa·s
278.15 K, 100 kPa	1119 mPa·s
283.15 K, 100 kPa	755 mPa·s
288.15 K, 100 kPa	521 mPa·s
293.15 K, 100 kPa	369 mPa·s
298.15 K, 100 kPa	271 mPa·s and 273 mPa·s
298.15 K, 12100 kPa	329 mPa·s
298.15 K, 24700 kPa	391 mPa·s
298.15 K, 25700 kPa	390 mPa·s
298.15 K, 50600 kPa	546 mPa·s
298.15 K, 75800 kPa	761 mPa·s
298.15 K, 100300 kPa	1047 mPa·s
298.15 K, 125100 kPa	1432 mPa·s
298.15 K, 125600 kPa	1461 mPa·s
298.15 K, 150300 kPa	1995 mPa·s
298.15 K, 174100 kPa	2694 mPa·s
303.15 K, 100 kPa	202 mPa·s
308.15 K, 100 kPa	158.4 mPa·s
308.15 K, 900 kPa	159.7 mPa·s
308.15 K, 9600 kPa	179.1 mPa·s
308.15 K, 25800 kPa	221 mPa·s
308.15 K, 50300 kPa	302 mPa·s
308.15 K, 75600 kPa	412 mPa·s
308.15 K, 100300 kPa	557 mPa·s
308.15 K, 125200 kPa	750 mPa·s
308.15 K, 140600 kPa	898 mPa·s
308.15 K, 151000 kPa	1016 mPa·s
313.15 K, 100 kPa	120 mPa·s
323.15 K, 100 kPa	73.6 mPa·s and 74.1 mPa·s and 74.9 mPa·s
323.15 K, 1300 kPa	74.9 mPa·s
323.15 K, 3100 kPa	76.9 mPa·s
323.15 K, 5600 kPa	78.2 mPa·s
323.15 K, 10700 kPa	82.7 mPa·s
323.15 K, 25800 kPa	98.9 mPa·s
323.15 K, 50800 kPa	127.8 mPa·s
323.15 K, 75800 kPa	173.5 mPa·s
323.15 K, 100700 kPa	224 mPa·s
323.15 K, 125500 kPa	281 mPa·s
323.15 K, 150400 kPa	371 mPa·s
323.15 K, 175200 kPa	481 mPa·s
323.15 K, 200000 kPa	616 mPa·s
323.15 K, 224600 kPa	784 mPa·s
323.15 K, 249300 kPa	995 mPa·s
333.15 K, 100 kPa	49.5 mPa·s [middle of 4 runs]
333.15 K, 10700 kPa	55.8 mPa·s
333.15 K, 26200 kPa	66 mPa·s
333.15 K, 51100 kPa	85.6 mPa·s
333.15 K, 75700 kPa	109.8 mPa·s
333.15 K, 91100 kPa	128 mPa·s
333.15 K, 100100 kPa	139.4 mPa·s
343.15 K, 100 kPa	35.1 mPa·s and 34.7 mPa·s and 34.6 mPa·s
343.15 K, 5500 kPa	37.2 mPa·s
343.15 K, 10600 kPa	39.2 mPa·s
343.15 K, 25700 kPa	45.6 mPa·s
343.15 K, 50600 kPa	58 mPa·s
343.15 K, 75600 kPa	73.7 mPa·s
343.15 K, 100600 kPa	92.9 mPa·s
343.15 K, 125400 kPa	116.2 mPa·s
343.15 K, 140200 kPa	132.6 mPa·s
343.15 K, 149900 kPa	144.4 mPa·s
343.15 K, 172900 kPa	176.1 mPa·s
353.15 K, 100 kPa	25.5 mPa·s
